The record followed here is PubChem BioAssay (NCI).

Test systems include HT29 colon; SN12C renal; LOX IMVI melanoma; KM12 colon; K-562 leukemia; RXF 393 renal; SK-OV-3 ovarian; IGROV1 ovarian; HOP-92 NSCLC; CAKI-1 renal.
Test in all cases: NCI anticancer screen, dose series, 48 h

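Grown in 96-well plates, cells were treated for 48 hours with each compound at five concentrations. Insufficient inhibition: endpoint recorded as highest concentration tested. GI50 is the concentration that inhibits growth by half. TGI denotes the concentration required for complete inhibition of growth.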

Turning to `Cc1ccccc1NC(=O)CSc1nnc(-c2ccc(N=Cc3ccc(Cl)cc3)cc2)o1`, the TGI in the test with HT29 colon, in the test with SN12C renal, in the test on LOX IMVI melanoma, in the test on KM12 colon, with K-562 leukemia and with RXF 393 renal was greater than 100 µM throughout. Moreover, the TGI with SK-OV-3 ovarian was greater than 100 µM.

`O=C1CC23CCCCCCCCCCC2(C1)CC(=O)C3` (centres undefined): the TGI turned out to be 83 µM in the test on IGROV1 ovarian; 37.2 µM in the test with HT29 colon; 51.8 µM with HOP-92 NSCLC; 38.6 µM in the test on SN12C renal; 45 µM in the test with KM12 colon; 73.3 µM in the test with K-562 leukemia. Further, the figures for the TGI in the test on RXF 393 renal and in the test on SK-OV-3 ovarian were 89.2 µM and 65.2 µM, respectively.

Consider `Cc1cc2c(c(C(=O)O)c1C)-c1cccc(Cl)c1C2=O`, for which the TGI in the test with IGROV1 ovarian, in the test on HT29 colon, in the test on SN12C renal, in the test on LOX IMVI melanoma, in the test with KM12 colon and in the test with K-562 leukemia was greater than 100 µM in each case. Moreover, the TGI with RXF 393 renal, in the test on CAKI-1 renal and in the test with SK-OV-3 ovarian was greater than 100 µM throughout.

As to `CN(C)C(=S)/N=c1\ss/c(=N\C(=S)N(C)C)n1-c1cccc(Cl)c1`, the TGI in the test with IGROV1 ovarian, in the test with HT29 colon, in the test with SN12C renal, in the test on LOX IMVI melanoma, in the test on KM12 colon and in the test on K-562 leukemia was greater than 100 µM throughout. The TGI in the test with RXF 393 renal and with CAKI-1 renal was greater than 100 µM in each case.

As for `CC1=NN(c2cccc(Cl)c2)C(=O)/C1=C\c1cn(CC(O)CN2CCCCC2)c2ccccc12` (centres undefined), the GI50 in the test on IGROV1 ovarian was 2.99 µM; with HT29 colon, 2.02 µM; in the test on HOP-92 NSCLC, 14.8 µM; in the test on SN12C renal, 12.3 µM; in the test on KM12 colon, 2.92 µM; in the test on K-562 leukemia, 3.29 µM. For the same compound, the GI50 in the test on RXF 393 renal is 4.97 µM; in the test with CAKI-1 renal, 1.83 µM; in the test on SK-OV-3 ovarian, 12.9 µM. For the same compound, the TGI amounted to 14.6 µM with IGROV1 ovarian; 4.57 µM with HT29 colon; 38 µM in the test on HOP-92 NSCLC; 35.3 µM in the test with SN12C renal; 8.26 µM with KM12 colon; 39.4 µM in the test on K-562 leukemia. Besides, the results for the TGI in the test on RXF 393 renal, with CAKI-1 renal and in the test with SK-OV-3 ovarian were 17.5 µM, 5.33 µM and 26.6 µM, respectively.

Consider `CCOc1ccc(NC(=O)/C(CC(=O)c2c[n+](=O)c3ccccc3n2[O-])=N\OCCCc2ccccc2)cc1`, for which the TGI is greater than 100 µM with IGROV1 ovarian; greater than 100 µM in the test with HT29 colon; 99.6 µM in the test with HOP-92 NSCLC; greater than 100 µM with SN12C renal; greater than 100 µM with KM12 colon; greater than 100 µM in the test with K-562 leukemia. The TGI in the test with RXF 393 renal, in the test with CAKI-1 renal and in the test on SK-OV-3 ovarian was greater than 100 µM in each case.

In the case of `COc1cc(O)ccc1C(=S)SC`, the TGI in the test with IGROV1 ovarian was greater than 100 µM; in the test on HT29 colon, greater than 100 µM; in the test with HOP-92 NSCLC, greater than 100 µM; with SN12C renal it was 9.56 µM; in the test with KM12 colon, greater than 100 µM; in the test on K-562 leukemia, greater than 100 µM. Also, the TGI with RXF 393 renal, in the test on CAKI-1 renal and with SK-OV-3 ovarian was greater than 100 µM throughout.

`C/C(=N/NC(=S)Nc1ccccc1)c1nc2ccc(Cl)cc2[nH]1`: the GI50 is 0.14 µM in the test with IGROV1 ovarian; 0.585 µM in the test on HOP-92 NSCLC; 0.14 µM in the test with KM12 colon; 0.147 µM in the test with K-562 leukemia; 0.165 µM in the test with RXF 393 renal; 0.246 µM in the test with SK-OV-3 ovarian. Moreover, the TGI in the test on IGROV1 ovarian came out at 1.19 µM; with HOP-92 NSCLC, 1.52 µM; with KM12 colon, 0.826 µM; with K-562 leukemia, 13.4 µM; with RXF 393 renal, 0.783 µM; in the test on SK-OV-3 ovarian, 1.39 µM.

Regarding `COc1ccc(-c2ccc(C3CC(c4ccccc4)=NN3)o2)c([N+](=O)[O-])c1` (centres undefined), the GI50 with IGROV1 ovarian was greater than 100 µM; with HT29 colon it was 51.3 µM; in the test on HOP-92 NSCLC, 24.8 µM; in the test on SN12C renal it was 56.4 µM; in the test with KM12 colon, 27.3 µM; in the test with K-562 leukemia it was 34.5 µM. Besides, the results for the GI50 with RXF 393 renal, with CAKI-1 renal and in the test on SK-OV-3 ovarian were 40 µM, 34.4 µM and 42.5 µM, respectively. In addition, the TGI with IGROV1 ovarian is greater than 100 µM; in the test with HT29 colon, greater than 100 µM; with HOP-92 NSCLC, 68.2 µM; with SN12C renal, greater than 100 µM; with KM12 colon, greater than 100 µM; in the test with K-562 leukemia it was greater than 100 µM. The TGI in the test on RXF 393 renal, in the test with CAKI-1 renal and in the test on SK-OV-3 ovarian was greater than 100 µM each time.

`CC(C)(C)C#COC(=O)c1ccccc1`: the TGI with IGROV1 ovarian, in the test with HT29 colon, in the test with SN12C renal, in the test on LOX IMVI melanoma, in the test on KM12 colon and with K-562 leukemia was greater than 100 µM in each case. For the same compound, the TGI in the test on CAKI-1 renal and in the test with SK-OV-3 ovarian was greater than 100 µM in each case.

Consider `COc1cc2c(cc1C)NC(=O)/C2=C/c1ccnc2ccccc12`, for which the GI50 in the test with IGROV1 ovarian is 12.6 µM; in the test with HOP-92 NSCLC, 12.4 µM; in the test with SN12C renal, 12.6 µM; in the test with KM12 colon, 26.2 µM; with K-562 leukemia it was 6.34 µM; with CAKI-1 renal, 16.2 µM. Also, in the test on SK-OV-3 ovarian, the GI50 was 12.6 µM. Moreover, the TGI with IGROV1 ovarian was greater than 50 µM; in the test with HOP-92 NSCLC it was greater than 50 µM; with SN12C renal, greater than 50 µM; in the test with KM12 colon, greater than 50 µM; in the test with K-562 leukemia, 33.6 µM; in the test with CAKI-1 renal it was greater than 50 µM. The TGI in the test on SK-OV-3 ovarian is greater than 50 µM.

Turning to `CC(=O)Nc1ccc(C2CC(c3ccc([N+](=O)[O-])cc3)=Nc3ccccc3S2)cc1` (centres undefined), the TGI in the test with IGROV1 ovarian amounted to 67.2 µM; with HT29 colon it was 28.7 µM; with SN12C renal, 33 µM; in the test on LOX IMVI melanoma, 32.3 µM; in the test with KM12 colon, 30.6 µM; in the test with K-562 leukemia, 42 µM. Also, the TGI with RXF 393 renal turned out to be 34.9 µM; with CAKI-1 renal, 77.7 µM; in the test with SK-OV-3 ovarian it was 87.8 µM.
